Measurements reported in US8017612B2, “Piperazine compound and use thereof as a HCV polymerase inhibitor” (priority 2006, dated 2011).

Experiments:
[1] = molecular target: T1, HCV polymerase (NS5B) type 1b (Hepatitis C virus genotype 1b, UniProt P26663); test: Assay of enzyme (HCV polymerase) inhibitory activity, type 1b enzyme; type: biochemical, HCV BK strain (type 1b); conditions: HCV polymerase inhibitory activity IC50, 1b, type 1b enzyme
T1 construct: a region encoding NS5B (J Virol 1991 March, 65(3), 1105-13, 544 amino acids after deletion of 47 amino acids on the C-terminal); 6xHis (C); made in house; host or cells: Escherichia coli
Procedure, shortened: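 His-tagged, C-terminally truncated NS5B (BK strain, 1b; 0.5 μg/ml) incubated with compound 60 min at 25 °C on 3′UTR-derived substrate RNA (5 μg/ml), 50 μM ATP/GTP/CTP, 2 μM UTP plus [3H]UTP, pH 7.5. Acid-precipitated RNA counted; IC50 from radioactivity with and without compound.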

[2] = molecular target: T2, HCV polymerase (NS5B) type 1a (Hepatitis C virus genotype 1a, UniProt P26664); test: Assay of enzyme (HCV polymerase) inhibitory activity, type 1a enzyme; type: biochemical, HCV type 1a (cloned from the blood of patients); conditions: HCV polymerase inhibitory activity IC50, 1a, type 1a enzyme
T2 construct: made in house; host or cells: Escherichia coli (by the 'similar method' of the 1b enzyme)
Procedure, shortened: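 His-tagged NS5B, C-terminal 47 residues deleted, type 1a at 1.5 μg/ml, with 5 μg/ml HCV 3′UTR substrate RNA, 50 μM ATP/GTP/CTP, 2 μM UTP plus [3H]UTP, pH 7.5 Tris, 5 mM MgCl2; 60 min at 25° C. TCA-precipitated RNA counted by scintillation; IC50 from radioactivity with vs. without compound.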

| Compound | IC50 [1] [µM] | IC50 [2] [µM] |
| --- | --- | --- |
| O=C(NCc1ccc(S(F)(F)(F)(F)F)cc1)[C@H]1CN(c2nc3ncncc3s2)CCN1S(=O)(=O)c1ccc(OC(F)(F)F)cc1 [Example 996, (R)-4-thiazolo[4,5-d]pyrimidin-2-yl-1-(4-trifluoromethoxy-benzenesulfonyl)-piperazine-2-carboxylic acid 4-pentafluorosulfanyl-benzylamide] | < 0.1 | < 0.1 |
| O=C(NCc1ccc(OC(F)F)cc1F)[C@H]1CN(c2nc3nc(Cl)ncc3s2)CCN1S(=O)(=O)c1ccc(OC(F)(F)F)cc1 [Example 997, (R)-4-(5-chloro-thiazolo[4,5-d]pyrimidin-2-yl)-1-(4-trifluoromethoxy-benzenesulfonyl)-piperazine-2-carboxylic acid 4-difluoromethoxy-2-fluoro-benzylamide] | < 0.1 | < 0.1 |
| O=C(NCc1ccc(OC(F)F)cc1F)[C@H]1CN(c2nc3ncncc3s2)CCN1S(=O)(=O)c1ccc(OC(F)(F)F)cc1 [Example 998, (R)-4-thiazolo[4,5-d]pyrimidin-2-yl-1-(4-trifluoromethoxy-benzenesulfonyl)-piperazine-2-carboxylic acid 4-difluoromethoxy-2-fluoro-benzylamide] | < 0.1 | < 0.1 |
| O=C(NCc1ccc(OC(F)(F)F)cc1)[C@H]1CN(c2nc3nc(C(F)(F)F)ncc3s2)CCN1S(=O)(=O)c1ccc(OC(F)F)cc1 [Example 999, (R)-1-(4-difluoromethoxy-benzenesulfonyl)-4-(5-trifluoromethyl-thiazolo[4,5-d]pyrimidin-2-yl)-piperazine-2-carboxylic acid 4-trifluoromethoxy-benzylamide] | < 0.1 | < 0.1 |
| O=C(NCc1ccc(OC(F)F)cc1)[C@H]1CN(c2nc3nc(C(F)(F)F)ncc3s2)CCN1S(=O)(=O)c1ccc(OC(F)(F)F)cc1 [Example 1000, (R)-1-(4-trifluoromethoxy-benzenesulfonyl)-4-(5-trifluoromethyl-thiazolo[4,5-d]pyrimidin-2-yl)-piperazine-2-carboxylic acid 4-difluoromethoxy-benzylamide] | < 0.1 | < 0.1 |
| O=C(NCc1ccc(OC(F)F)cc1)[C@H]1CN(c2nc3nc(C(F)(F)F)ncc3s2)CCN1S(=O)(=O)c1ccc(C(F)(F)F)cc1 [Example 1001, (R)-1-(4-trifluoromethyl-benzenesulfonyl)-4-(5-trifluoromethyl-thiazolo[4,5-d]pyrimidin-2-yl)-piperazine-2-carboxylic acid 4-difluoromethoxy-benzylamide] | < 0.1 | < 0.1 |
| O=C(NCc1ccc(OC(F)(F)F)cc1)[C@H]1CN(c2nc3nnnc(NCCO)c3s2)CCN1S(=O)(=O)c1ccc(OC(F)(F)F)cc1 [Example 1002, (R)-4-[4-(2-hydroxy-ethylamino)-thiazolo[4,5-d][1,2,3]triazin-6-yl]-1-(4-trifluoromethoxy-benzenesulfonyl)-piperazine-2-carboxylic acid 4-trifluoromethoxy-benzylamide] | < 0.1 | < 0.1 |
| O=C(NCc1ccc(OC(F)(F)F)cc1)[C@H]1CN(c2nc3nc(C(F)(F)F)[nH]c(=O)c3s2)CCN1S(=O)(=O)c1ccc(OC(F)(F)F)cc1 [Example 1003, (R)-4-(7-oxo-5-trifluoromethyl-6,7-dihydro-thiazolo[4,5-d]pyrimidin-2-yl)-1-(4-trifluoromethoxy-benzenesulfonyl)-piperazine-2-carboxylic acid 4-trifluoromethoxy-benzylamide] | < 0.1 | < 0.1 |
| O=C(NCc1ccc(OC(F)(F)F)cc1)[C@H]1CN(c2nc3nc(C(F)(F)F)ncc3s2)CCN1S(=O)(=O)c1ccc(OC(F)(F)C(F)F)cc1 [Example 1004, (R)-1-[4-(1,1,2,2-tetrafluoro-ethoxy)-benzenesulfonyl]-4-(5-trifluoromethyl-thiazolo[4,5-d]pyrimidin-2-yl)-piperazine-2-carboxylic acid 4-trifluoromethoxy-benzylamide] | < 0.1 | < 0.1 |
| O=C(NCc1ccc(OC(F)F)cc1)[C@H]1CN(c2nc3nc(C(F)(F)F)ncc3s2)CCN1S(=O)(=O)c1ccc(OC(F)F)cc1 [Example 1005, (R)-1-(4-difluoromethoxy-benzenesulfonyl)-4-(5-trifluoromethyl-thiazolo[4,5-d]pyrimidin-2-yl)-piperazine-2-carboxylic acid 4-difluoromethoxy-benzylamide] | < 0.1 | < 0.1 |
| O=C(NCc1ccc(OC(F)(F)F)cc1)[C@H]1CN(c2nc3nnncc3s2)CCN1S(=O)(=O)c1ccc(C(F)(F)F)cc1 [Example 1006, (R)-4-thiazolo[4,5-d][1,2,3]triazin-6-yl-1-(4-trifluoromethyl-benzenesulfonyl)-piperazine-2-carboxylic acid 4-trifluoromethoxy-benzylamide] | < 0.1 | < 0.1 |
| CCOC(=O)c1ncc2sc(N3CCN(S(=O)(=O)c4ccc(OC(F)(F)F)cc4)[C@@H](C(=O)NCc4ccc(OC(F)(F)F)cc4)C3)nc2n1 [Example 1007, 2-[(R)-4-(4-trifluoromethoxy-benzenesulfonyl)-3-(4-trifluoromethoxy-benzylcarbamoyl)-piperazin-1-yl]-thiazolo[4,5-d]pyrimidine-5-carboxylic acid ethyl ester] | < 0.1 | < 0.1 |
| O=C(NCc1ccc(OC(F)(F)F)cc1)[C@H]1CN(c2nc3nc(CO)ncc3s2)CCN1S(=O)(=O)c1ccc(OC(F)(F)F)cc1 [Example 1008, (R)-4-(5-hydroxymethyl-thiazolo[4,5-d]pyrimidin-2-yl)-1-(4-trifluoromethoxy-benzenesulfonyl)-piperazine-2-carboxylic acid 4-trifluoromethoxy-benzylamide] | < 0.1 | < 0.1 |
| COc1nncc2sc(N3CCN(S(=O)(=O)c4ccc(OC(F)(F)F)cc4)[C@@H](C(=O)NCc4ccc(OC(F)(F)F)cc4)C3)nc12 [Example 1009, (R)-4-(4-methoxy-thiazolo[4,5-d]pyridazin-2-yl)-1-(4-trifluoromethoxy-benzenesulfonyl)-piperazine-2-carboxylic acid 4-trifluoromethoxy-benzylamide] | < 0.1 | < 0.1 |
| N#Cc1ncc2sc(N3CCN(S(=O)(=O)c4ccc(C(F)(F)F)cc4)[C@@H](C(=O)NCc4ccc(OC(F)(F)F)cc4)C3)nc2n1 [Example 1010, (R)-4-(5-cyano-thiazolo[4,5-d]pyrimidin-2-yl)-1-(4-trifluoromethyl-benzenesulfonyl)-piperazine-2-carboxylic acid 4-trifluoromethoxy-benzylamide] | < 0.1 | < 0.1 |
| N#Cc1ncc2sc(N3CCN(S(=O)(=O)c4ccc(C(F)(F)F)cc4)[C@@H](C(=O)NCc4ccc(OC(F)F)cc4)C3)nc2n1 [Example 1011, (R)-4-(5-cyano-thiazolo[4,5-d]pyrimidin-2-yl)-1-(4-trifluoromethyl-benzenesulfonyl)-piperazine-2-carboxylic acid 4-difluoromethoxy-benzylamide] | < 0.1 | < 0.1 |
| O=C(NCc1ccc(OC(F)(F)F)cc1)[C@H]1CN(c2nc3nc(CC4CC4)ncc3s2)CCN1S(=O)(=O)c1ccc(C(F)(F)F)cc1 [Example 1012, (R)-4-(5-cyclopropylmethyl-thiazolo[4,5-d]pyrimidin-2-yl)-1-(4-trifluoromethyl-benzenesulfonyl)-piperazine-2-carboxylic acid 4-trifluoromethoxy-benzylamide] | < 0.1 | < 0.1 |
| NC(=O)c1ncc2sc(N3CCN(S(=O)(=O)c4ccc(C(F)(F)F)cc4)[C@@H](C(=O)NCc4ccc(OC(F)(F)F)cc4)C3)nc2n1 [Example 1013, 2-[(R)-3-(4-trifluoromethoxy-benzylcarbamoyl)-4-(4-trifluoromethyl-benzenesulfonyl)-piperazin-1-yl]-thiazolo[4,5-d]pyrimidine-5-carboxylic acid amide] | < 0.1 | < 0.1 |
| O=C(NCc1ccc(OC(F)F)cc1)[C@H]1CN(c2nc3nc(C4CC4)ncc3s2)CCN1S(=O)(=O)c1ccc(OC(F)F)cc1 [Example 1014, (R)-4-(5-cyclopropyl-thiazolo[4,5-d]pyrimidin-2-yl)-1-(4-difluoromethoxy-benzenesulfonyl)-piperazine-2-carboxylic acid 4-difluoromethoxy-benzylamide] | < 0.1 | < 0.1 |
| O=C(NCc1ccc(OC(F)F)cc1)[C@H]1CN(c2nc3nc(C(F)(F)F)ncc3s2)CCN1S(=O)(=O)c1ccc(OC(F)(F)C(F)F)cc1 [Example 1015, (R)-1-[4-(1,1,2,2-tetrafluoro-ethoxy)-benzenesulfonyl]-4-(5-trifluoromethyl-thiazolo[4,5-d]pyrimidin-2-yl)-piperazine-2-carboxylic acid 4-difluoromethoxy-benzylamide] | < 0.1 | < 0.1 |
| O=C(NCc1ccc(OC(F)(F)F)cc1)[C@H]1CN(c2nc3nc(C4CC4)ncc3s2)CCN1S(=O)(=O)c1ccc(OC(F)F)cc1 [Example 1016, (R)-4-(5-cyclopropyl-thiazolo[4,5-d]pyrimidin-2-yl)-1-(4-difluoromethoxy-benzenesulfonyl)-piperazine-2-carboxylic acid 4-trifluoromethoxy-benzylamide] | < 0.1 | < 0.1 |
